Measured values as given in ChEMBL document CHEMBL1133130, “Synthesis and evaluation of geldanamycin-testosterone hybrids” (Bioorg Med Chem Lett, 2000).

Tests used:
Type in all cases: functional, cell-based
[1] = Compound was evaluated for cytotoxicity against LAPC4 prostate cancer cells (AR dependent cells); conditions: Homo sapiens
[2] = tested on: PC-3; assay: Compound was evaluated for cytotoxicity against PC3 prostate cancer cells ([…] cells); conditions: Homo sapiens
[3] = tested on: LNCaP; assay: Compound was evaluated for cytotoxicity against LNCaP prostate cancer cells; conditions: Homo sapiens
[4] = tested on: MCF7; assay: Compound was evaluated for cytotoxicity against MCF-7 breast cancer cells ([…] cells); conditions: Homo sapiens
[5] = Compound was evaluated for cytotoxicity against MDA-468 breast cancer cells ([…] cells); conditions: Homo sapiens, MDA-MB-468
[6] = tested on: COLO 205; assay: Compound was evaluated for cytotoxicity against COLO 205 colon cancer cells ([…] cells); conditions: Homo sapiens
[7] = tested on: LNCaP; assay: Compound was evaluated for cytotoxicity against LNCaP prostate cancer cells (AR dependent cells); conditions: Homo sapiens

**Q.** Which IC50 [1] does the source give for `COC1=C2C[C@H](C)C[C@H](OC)[C@@H](O)[C@H](C)/C=C(\C)C[C@H](OC(N)=O)[C@@H](OC)/C=C\C=C(/C)C(=O)NC(=CC1=O)C2=O` here?
**A.** The IC50 was 25 nM.

**Q.** And the IC50 [2]?
**A.** Its IC50 is 30 nM.

**Q.** What about the IC50 [3] of the same compound?
**A.** The IC50 was 40 nM.

**Q.** What about the IC50 [4] of the same compound?
**A.** Its IC50 is 30 nM.

**Q.** And the IC50 [5]?
**A.** Its IC50 is 20 nM.

**Q.** What about the IC50 [6] of the same compound?
**A.** The IC50 was 20 nM.

**Q.** What about the IC50 [7] of the same compound?
**A.** The IC50 was 40 nM.

**Q.** With `CO[C@H]1/C=C\C=C(/C)C(=O)NC2=CC(=O)C(NCCCC/C=C\[C@]3(O)CC[C@@]4(C)C5CC=C6CC7(CC[C@]6(C)[C@@]5(C)CC[C@@]43C)OCCO7)=C(C[C@H](C)C[C@H](OC)[C@@H](O)[C@H](C)/C=C(\C)C[C@@H]1OC(N)=O)C2=O` (stereo partly specified) as the compound, how does the IC50 [3] read?
**A.** Its IC50 is over 1000 nM.

**Q.** With `CO[C@H]1/C=C\C=C(/C)C(=O)NC2=CC(=O)C(NCCCCC#C[C@]3(O)CC[C@@]4(C)C5CCC6=CC(=O)CC[C@]6(C)[C@@]5(C)CC[C@@]43C)=C(C[C@H](C)C[C@H](OC)[C@@H](O)[C@H](C)/C=C(\C)C[C@@H]1OC(N)=O)C2=O` (stereo partly specified) as the compound, how does the IC50 [1] read?
**A.** Its IC50 is 40 nM.

**Q.** What about the IC50 [2] of the same compound?
**A.** Its IC50 is 300 nM.

**Q.** And the IC50 [3]?
**A.** Its IC50 is 100 nM.

**Q.** What about the IC50 [4] of the same compound?
**A.** The IC50 was 300 nM.

**Q.** And the IC50 [5]?
**A.** Its IC50 is 240 nM.

**Q.** What about the IC50 [6] of the same compound?
**A.** The IC50 was 200 nM.

**Q.** And the IC50 [7]?
**A.** Its IC50 is 100 nM.

**Q.** Which IC50 [3] does the source give for `CO[C@H]1/C=C\C=C(/C)C(=O)NC2=CC(=O)C(NCCCCCCC#C[C@]3(O)CC[C@@]4(C)C5CCC6=CC(=O)CC[C@]6(C)[C@@]5(C)CC[C@@]43C)=C(C[C@H](C)C[C@H](OC)[C@@H](O)[C@H](C)/C=C(\C)C[C@@H]1OC(N)=O)C2=O` (stereo partly specified) here?
**A.** Its IC50 is over 1000 nM.

**Q.** Which IC50 [3] does the source give for `CO[C@H]1/C=C\C=C(/C)C(=O)NC2=CC(=O)C(NCCCC#C[C@]3(O)CC[C@@]4(C)C5CCC6=CC(=O)CC[C@]6(C)[C@@]5(C)CC[C@@]43C)=C(C[C@H](C)C[C@H](OC)[C@@H](O)[C@H](C)/C=C(\C)C[C@@H]1OC(N)=O)C2=O` (stereo partly specified) here?
**A.** The IC50 was 200 nM.

**Q.** With `CO[C@H]1/C=C\C=C(/C)C(=O)NC2=CC(=O)C(NCCC#C[C@]3(O)CC[C@@]4(C)C5CCC6=CC(=O)CC[C@]6(C)[C@@]5(C)CC[C@@]43C)=C(C[C@H](C)C[C@H](OC)[C@@H](O)[C@H](C)/C=C(\C)C[C@@H]1OC(N)=O)C2=O` (stereo partly specified) as the compound, how does the IC50 [3] read?
**A.** The IC50 was over 1000 nM.

**Q.** For `CO[C@H]1/C=C\C=C(/C)C(=O)NC2=CC(=O)C(NCCCC/C=C/[C@]3(O)CC[C@@]4(C)C5CC=C6CC7(CC[C@]6(C)[C@@]5(C)CC[C@@]43C)OCCO7)=C(C[C@H](C)C[C@H](OC)[C@@H](O)[C@H](C)/C=C(\C)C[C@@H]1OC(N)=O)C2=O` (stereo partly specified), which IC50 [3] is on record?
**A.** Its IC50 is over 1000 nM.

**Q.** For `CO[C@H]1/C=C\C=C(/C)C(=O)NC2=CC(=O)C(NCCCCCC[C@]3(O)CC[C@@]4(C)C5CC=C6CC7(CC[C@]6(C)[C@@]5(C)CC[C@]34C)OCCO7)=C(C[C@H](C)C[C@H](OC)[C@@H](O)[C@H](C)/C=C(\C)C[C@@H]1OC(N)=O)C2=O` (stereo partly specified), which IC50 [3] is on record?
**A.** The IC50 was over 1000 nM.

**Q.** Which IC50 [3] does the source give for `CO[C@H]1/C=C\C=C(/C)C(=O)NC2=CC(=O)C(NCCCCCC#C[C@]3(O)CC[C@@]4(C)C5CCC6=CC(=O)CC[C@]6(C)[C@@]5(C)CC[C@@]43C)=C(C[C@H](C)C[C@H](OC)[C@@H](O)[C@H](C)/C=C(\C)C[C@@H]1OC(N)=O)C2=O` (stereo partly specified) here?
**A.** The IC50 was over 1000 nM.
